Measurements from patent US5565432A (American Home Products Corporation, priority 1994, dated 1996).
Structures can show the parent of a compound that is named as a salt.

Legend:
[1] = test system: normal human plasma; experiment: Anticoagulant activity, partial thromboplastin time (APTT) assay; settings: for Anticoagulation Activity (APTT) Relative to Heparin: ratio>1 indicates weaker activity relative to heparin on a μg/mL basis
Procedure: The anticlotting activity of the compounds of this invention were evaluated in a partial thromboplastin time (APTT) assay using normal human plasma collected from 5 donors using the procedure of Fenichel et. al. (Clin. Chem. 1964, 10, 69). A BBL Fibrometer automatic precesion coagulation timer utilizing a 0.3 ml probe was employed. An Ellagic acid activated partial thromboplastin was used for these experiments. This reagent is added to human citrated plasma equilibrated at 37° C. in a plastic well in the clot timer. Calcium at 37° C. is added, the clot timer is started and the time for fibrin clot formation (in seconds) was recorded. The effect of the compounds, added to plasma, over a concentration of 12.5-200 μg/mL was determined. […] An unfractionated heparin comparator was used over the concentration range of 1.25-10 μg/mL. Clotting tests at all concentrations were run in triplicate. Analysis of variance for a randomized block design was used to determine the significance of differences observed in the clotting times. The potency is reported relative to heparin wherein ratio>1 indicates weaker activity relative to heparin on a μg/mL basis.

[2] = test system: smooth muscle cell; settings: prior art; cited from earlier work
[3] = test system: restenosis; settings: prior art; cited from earlier work
[4] = test system: human aortic endothelial cells; experiment: Effect on human endothelial cell growth; type: cell-based; settings: driven by 2% FBS, at doses inhibitory towards human smooth muscle cell proliferation driven by 10% FBS (FIG. 1)
Procedure: The ability of the compounds of the present invention to inhibit smooth muscle cell proliferation and modulate endothelial cell growth was established using isolated aortic cells obtained from commercial sources or, for certain species, prepared in-house. Cell lines used in this study include human and porcine aortic smooth muscle cells and human aortic endothelial cells. Human aortic cell lines were obtained from Clonetics Corporation (San Diego).
Cells were assayed in early passage (generally passage 3-7) at sub-confluent conditions. Cultures were grown in 16 mm (24 well) multi-well culture dishes in media 199 supplemented with 10% fetal bovine serum and 2% antibiotic/antimycotic. At sub-confluence, the cells were placed in a defined serum free medium (AIM-V; Gibco) for 24-48 h prior to initiating the experimental protocol.
Growth factor and serum stimulations were optimized for each cell type.
Compounds were added to each well at 50 fold dilution (20 μL/well) and the plates were incubated for 24-36 h at 37° C. in 5% CO2. […] Compounds were routinely assayed at 1, 10, and 100 μM. […]
Data was obtained, in triplicate, for both control and experimental samples. […] Data was expressed as a percent of control from which IC50 s could be determined. […]

[5] = test system: common carotid artery, intimal thickening; experiment: Experimental model of restenosis (air-dried carotid artery), intimal thickening; type: in vivo, Male Sprague-Dawley Rats; settings: in comparison to untreated animals; dose of 125 μg/mL, i.v. osmotic pump, 2 weeks
Excerpt: Male Sprague-Dawley Rats weighing between 0.3-0.4 kg were housed in polycarbonate cages (2 per box) with corn cob bedding and provided with Purina 5001 rat chow and water (ad. lib. A 12 hr/12 hr light: dark cycle was maintained with light on at 7:00 A.M). After acclimation, rats were randomly assigned to treatment groups (12 per group). The rats were anesthetized with Ketamine, Acepromazone, and Xylazine. The anterior portion of the neck was shaved, a 3 cm incision was made along the midline, and the trachea was exposed by gently parting the underlying tissues and muscle. A retractor was inserted to hold the muscles and tissues aside and the common carotid artery was isolated from the surrounding tissue. A 2 cm segment of the right common carotid artery was lifted such that an 11 mm approximator was placed on the vessel at about […] before the bifurcation of the internal and external branches of the carotid artery. The 5 mm segment of the common carotid artery between the clamps of the approximator was punctured at about 0.5 mm from the edge of each clamp with a 30 G needle and a gentle stream of isotonic saline was injected through the isolated segment to flush out any blood. […]
Two weeks following surgery, the rats were sacrificed via anesthetized exsanquination. […] The cross sections were photographed and the arterial media and intima were digitized and measured. […]

Q: Which “Anticoagulation Activity (APTT) Relative to Heparin” value [1] does the source give for `O=C(Nc1cc(CO[C@@H]2O[C@H](COS(=O)(=O)O)[C@@H](O[C@@H]3O[C@H](COS(=O)(=O)O)[C@@H](OS(=O)(=O)O)[C@H](OS(=O)(=O)O)[C@H]3OS(=O)(=O)O)[C@H](OS(=O)(=O)O)[C@H]2OS(=O)(=O)O)cc(CO[C@@H]2O[C@H](COS(=O)(=O)O)[C@@H](O[C@@H]3O[C@H](COS(=O)(=O)O)[C@@H](OS(=O)(=O)O)[C@H](OS(=O)(=O)O)[C@H]3OS(=O)(=O)O)[C@H](OS(=O)(=O)O)[C@H]2OS(=O)(=O)O)c1)c1cc(C(=O)Nc2cc(CO[C@@H]3O[C@H](COS(=O)(=O)O)[C@@H](O[C@@H]4O[C@H](COS(=O)(=O)O)[C@@H](OS(=O)(=O)O)[C@H](OS(=O)(=O)O)[C@H]4OS(=O)(=O)O)[C@H](OS(=O)(=O)O)[C@H]3OS(=O)(=O)O)cc(CO[C@@H]3O[C@H](COS(=O)(=O)O)[C@@H](O[C@@H]4O[C@H](COS(=O)(=O)O)[C@@H](OS(=O)(=O)O)[C@H](OS(=O)(=O)O)[C@H]4OS(=O)(=O)O)[C@H](OS(=O)(=O)O)[C@H]3OS(=O)(=O)O)c2)cc(C(=O)Nc2cc(CO[C@@H]3O[C@H](COS(=O)(=O)O)[C@@H](O[C@@H]4O[C@H](COS(=O)(=O)O)[C@@H](OS(=O)(=O)O)[C@H](OS(=O)(=O)O)[C@H]4OS(=O)(=O)O)[C@H](OS(=O)(=O)O)[C@H]3OS(=O)(=O)O)cc(CO[C@@H]3O[C@H](COS(=O)(=O)O)[C@@H](O[C@@H]4O[C@H](COS(=O)(=O)O)[C@@H](OS(=O)(=O)O)[C@H](OS(=O)(=O)O)[C@H]4OS(=O)(=O)O)[C@H](OS(=O)(=O)O)[C@H]3OS(=O)(=O)O)c2)c1` [Example 14, Benzene-1,3,5-tricarboxylic Acid Tris{[3,5-bis-(hepta-O-sulfato-β-D-cellobiosyloxymethyl)phenyl]amide}Tetratetracontasodium Salt] here?
A: The value was 3.1.

Q: For `Cc1ccc(CO[C@@H]2O[C@H](COS(=O)(=O)O)[C@@H](O[C@@H]3O[C@H](COS(=O)(=O)O)[C@@H](OS(=O)(=O)O)[C@H](OS(=O)(=O)O)[C@H]3OS(=O)(=O)O)[C@H](OS(=O)(=O)O)[C@H]2OS(=O)(=O)O)cc1NC(=O)c1cc(C(=O)Nc2cc(CO[C@@H]3O[C@H](COS(=O)(=O)O)[C@@H](O[C@@H]4O[C@H](COS(=O)(=O)O)[C@@H](OS(=O)(=O)O)[C@H](OS(=O)(=O)O)[C@H]4OS(=O)(=O)O)[C@H](OS(=O)(=O)O)[C@H]3OS(=O)(=O)O)ccc2C)cc(C(=O)Nc2cc(CO[C@@H]3O[C@H](COS(=O)(=O)O)[C@@H](O[C@@H]4O[C@H](COS(=O)(=O)O)[C@@H](OS(=O)(=O)O)[C@H](OS(=O)(=O)O)[C@H]4OS(=O)(=O)O)[C@H](OS(=O)(=O)O)[C@H]3OS(=O)(=O)O)ccc2C)c1` [Example 9, Benzene-1,3,5-tricarboxylic Acid Tris{[2-methyl-5-(hepta-O-sulfato-β-cellobiosyloxymethyl)phenyl]amide}Heneicosasodium Salt], which “Anticoagulation Activity (APTT), in words” value ([1]; at 25-200 μg/mL) is on record?
A: Its value is “no signifcant”.

Q: Which “SMC proliferation inhibition (literature)” value [2] does the source give for Beta-Cyclodextrin tetradecasulfate here?
A: Its value is “smooth muscle cell proliferation inhibitor”.

Q: And the “inhibition of restenosis (literature)” value [3]?
A: Its value is “effective inhibitor of restenosis”.

Q: With `O=C(Nc1cc(CO[C@@H]2O[C@H](COS(=O)(=O)O)[C@@H](O[C@@H]3O[C@H](COS(=O)(=O)O)[C@@H](OS(=O)(=O)O)[C@H](OS(=O)(=O)O)[C@H]3OS(=O)(=O)O)[C@H](OS(=O)(=O)O)[C@H]2OS(=O)(=O)O)ccc1Cl)c1cc(C(=O)Nc2cc(CO[C@@H]3O[C@H](COS(=O)(=O)O)[C@@H](O[C@@H]4O[C@H](COS(=O)(=O)O)[C@@H](OS(=O)(=O)O)[C@H](OS(=O)(=O)O)[C@H]4OS(=O)(=O)O)[C@H](OS(=O)(=O)O)[C@H]3OS(=O)(=O)O)ccc2Cl)cc(C(=O)Nc2cc(CO[C@@H]3O[C@H](COS(=O)(=O)O)[C@@H](O[C@@H]4O[C@H](COS(=O)(=O)O)[C@@H](OS(=O)(=O)O)[C@H](OS(=O)(=O)O)[C@H]4OS(=O)(=O)O)[C@H](OS(=O)(=O)O)[C@H]3OS(=O)(=O)O)ccc2Cl)c1` [Example 11] as the molecule, how does the “human endothelial cell growth” value [4] read?
A: Its value is “enhance human endothelial cell growth”.

Q: And the “Anticoagulation Activity (APTT) Relative to Heparin” value [1]?
A: Its value is 72.

Q: What about the “inhibition of intimal thickening” value [5] of the same molecule?
A: The value was 50%.
